# Target: T1, Axl (Homo sapiens, UniProt P30530)
# T1 construct: endogenous in cells; host or cells: HeLa cells
# T1 sequence (P30530 26-894): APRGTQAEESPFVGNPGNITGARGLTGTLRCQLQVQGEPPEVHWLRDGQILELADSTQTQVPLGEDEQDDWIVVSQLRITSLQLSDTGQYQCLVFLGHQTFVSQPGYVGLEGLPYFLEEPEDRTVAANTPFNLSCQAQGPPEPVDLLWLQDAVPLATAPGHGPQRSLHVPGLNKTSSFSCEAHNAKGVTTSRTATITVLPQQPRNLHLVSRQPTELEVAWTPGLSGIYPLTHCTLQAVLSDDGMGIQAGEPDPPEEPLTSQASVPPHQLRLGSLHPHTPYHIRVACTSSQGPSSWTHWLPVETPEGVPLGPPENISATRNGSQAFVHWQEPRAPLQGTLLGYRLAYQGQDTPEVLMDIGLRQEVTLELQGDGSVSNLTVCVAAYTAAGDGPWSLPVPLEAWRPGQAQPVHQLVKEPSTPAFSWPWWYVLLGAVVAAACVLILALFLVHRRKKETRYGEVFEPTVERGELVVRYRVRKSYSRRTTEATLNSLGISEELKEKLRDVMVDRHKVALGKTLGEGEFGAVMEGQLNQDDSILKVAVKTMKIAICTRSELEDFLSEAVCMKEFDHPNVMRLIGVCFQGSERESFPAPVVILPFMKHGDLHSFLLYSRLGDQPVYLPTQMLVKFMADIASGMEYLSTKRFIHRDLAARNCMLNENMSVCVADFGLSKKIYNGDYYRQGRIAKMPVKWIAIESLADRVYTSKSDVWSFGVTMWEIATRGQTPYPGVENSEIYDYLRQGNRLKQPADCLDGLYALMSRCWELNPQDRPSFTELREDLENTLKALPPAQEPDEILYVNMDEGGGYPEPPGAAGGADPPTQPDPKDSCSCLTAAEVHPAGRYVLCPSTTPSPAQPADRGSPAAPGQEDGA
# Test: Phospho-Akt in-cell Western assay (inhibition of Axl activity, Axl-antibody cross-linking stimulation)
# Type: cell-based
# Conditions: Hela cells, phospho-Akt readout; compounds of formula (Ia), Table 1
# Experimental: The compounds of the invention were tested in the following assay for their ability to inhibit Axl activity.
# Phospho-Akt in-Cell Western Assay
# • Cell culture plate: 96 well assay plate (Corning 3610), white, clear bottom, tissue-culture treated. • Cells: Hela cells. • Starvation medium: For Axl stimulation: 0.5% FCS (fetal calf serum) in DMEM, plus Axl/Fc (extracellular domain of AXL fused to immunoglobulin Fc region) (R&D, 154-AL) 500 ng/mL. • For EGF (epidermal growth factor) stimulation: 0.5% FCS in DMEM (Dulbecco's modified Eagles medium). • Poly-L-Lysine 0.01% solution (the working solution): 10 μg/ml, dilute In PBS (phosphate buffered saline). • Axl antibody cross-linking: • 1st: Mouse anti-Axl (R&D, MAB154). • 2nd: Biotin-SP-conjugated AffiniPure goat anti-mouse IgG (H+L) (Jackson ImmunoResearch #115-065-003). • Fixing buffer: 4% formaldehyde in PBS. • Wash buffer: 0.1% TritonX-100 in PBS. • Quenching buffer: 3% H2O2, 0.1% Azide in wash buffer, Azide and hydrogen peroxide (H2O2) are added fresh. • Blocking buffer: 5% BSA in TBST (tris buffered saline plus 0.1% Tween 20). • Primary antibody: Rabbit anti-human Phospho-Akt antibody (Cell Signaling 9271): 1×250 diluted in blocking buffer. • Secondary antibody: HRP (horse radish peroxidase)-conjugated Goat anti-Rabbit secondary, stock solution: Jackson ImmunoResearch (Goat anti-Rabbit HRP, #111-035-144) 1:1 diluted in glycerol, store at −20° C. The working solution: 1×2000 dilution of stock in blocking buffer. • Chemiluminescent working solution (Pierce, 37030): SuperSignal ELISA (enzyme linked immunosorbant assay) Pico Chemiluminescent substrate. • Crystal Violet solution: Stock: 2.5% Crystal violet in methanol, filtered and kept at ambient temperature. The working solution: dilute the stock 1:20 with PBS immediately before use.
# 10% SDS: working solution: 5% SDS (sodium dodecylsulfate), diluted in PBS
# A 96 well TC (tissue culture treated) plate was coated with 10 μg/mL poly-L-Lysine at 37° C. for 30 min, washed twice with PBS, and air-dried for 5 minutes before cells were added. Hela cells were seeded at 10,000 cells/well and the cells were starved in 100 μL starvation medium containing Axl/Fc for 24 hrs.
# The cells were pre-treated with test compounds by adding 100 μL of 2× test compound to the starvation medium on the cells. The cells were incubated at 37° C. for 1 hr before stimulation.
# The cells were stimulated by Axl-antibody cross-linking as follows: A 5×1st/2nd Axl antibody mixture was made (37.5 μg/mL 1st/100 μg/mL 2 nd) in starvation medium and nutated at 4° C. with thorough mixing for 1-2 hours for clustering. The resulting mix was warmed to 37° C. 50 μL of 5×Axl 1st/2nd of antibody cluster was added to the cells and the cells were incubated at 37° C. for 5 min.
# After 5 minutes stimulation, the plate was flicked to remove medium and the plate was tapped onto paper towels. Formaldehyde (4.0% in PBS, 100 μL) was added to fix the cells and the cells were incubated at ambient temperature for 20 min without shaking.
# The cells were washed with a plate washer buffer to remove the formaldehyde solution. The plate was flicked to removed excess wash buffer and tapped onto paper towels. Quenching buffer (100 μL) was added to each well and the cells were incubated at ambient temperature for 20 minutes without shaking.
# The cells were washed with a plate washer buffer to remove the quenching buffer. Blocking buffer (100 μL) was added and the cells were incubated at ambient temperature for at least an hour with gentle shaking.
# The cells were washed with a plate washer buffer and diluted primary antibody (50 μL) was added to each well (blocking buffer was added to the negative control wells instead). The plates were incubated overnight at 4° C. with gentle shaking.
# The wash buffer was removed, diluted secondary antibody (100 μL) was added, and the cells were incubated at ambient temperature for 1 hour with gentle shaking. […]
row,IC50 [nM],SMILES
1,< 1000,"Cc1csc2c(-n3nc(Nc4ccc(N5CCN(CC6CC6)CC5)nc4)nc3N)nc(Cl)nc12 [compound 48, 1-(2-chloro-7-methylthieno [3,2-d]pyrimidin-4-yl)-N^3-(6-(4-cyclopropyl-methyl-piperazin-1-yl)pyridin-3-yl)-1H-1,2,4-triazole-3,5-diamine]"
2,10000 to 20000,"Cc1csc2c(-n3nc(Nc4cnc5c(c4)CN(Cc4ccccc4)CC5)nc3N)nc(Cl)nc12 [compound 18, 1-(2-chloro-7-methylthieno [3,2-d]pyrimidine-4-yl)-N^3-(6-benzyl-5,6,7,8-tetrahydro-1,6-naphthyridin-3-yl)-1H-1,2,4-triazole-3,5-diamine]"
3,< 1000,"Cc1csc2c(-n3nc(Nc4ccc(N5CCC(N6CCCCC6)CC5)nc4)nc3N)nc(Cl)nc12 [compound 28, 1-(2-chloro-7-methylthieno [3,2-d]pyrimidine-4-yl)-N^3-(6-(4-piperidin-1-ylpiperidin-1-yl)pyridine-3-yl)-1H-1,2,4-triazole-3,5-diamine]"
4,< 1000,Cc1csc2c(-n3nc(Nc4cnc5c(c4)CC(NC(=O)C4CCN(C)CC4)CC5)nc3N)ncnc12 (stereo not shown) [compound 98]
5,< 1000,"Cc1csc2c(-n3nc(Nc4ccc(C5CCN(C6CC7CCC6C7)CC5)nc4)nc3N)ncnc12 (stereo not shown) [compound 88, 1-(7-methylthieno [3,2-d]pyrimidine-4-yl)-N^3-(6-(1-bicyclo [2.2.1]heptan-2-ylpiperidin-4-yl)pyridine-3-yl)-1H-1,2,4-triazole-3,5-diamine]"
6,< 1000,"Cc1csc2c(-n3nc(Nc4cnc5c(c4)CC(N4CCCC4)CC5)nc3N)ncnc12 (stereo not shown) [compound 85, 1-(7-methylthieno [3,2-d]pyrimidin-4-yl)-N^3-(6-pyrrolidin-1-yl-5,6,7,8-tetrahydro-quinolin-3-yl)-1H-1,2,4-triazole-3,5-diamine]"
7,< 1000,"Cc1csc2c(-n3nc(Nc4cnc5c(c4)CN(C(=O)C4CCN(C)CC4)CC5)nc3N)ncnc12 [compound 96, 1-(7-methylthieno [3,2-d]pyrimidin-4-yl)-N^3-(6-(1-methyl-piperidin-4-yl)carbonyl-5,6,7,8-tetrahydro-1,6-naphthyridin-3-yl)-1H-1,2,4-triazole-3,5-diamine]"
8,< 1000,"Cc1csc2c(-n3nc(Nc4cnc5c(c4)CC(NC4CCCCC4)CC5)nc3N)nc(Cl)nc12 (stereo not shown) [compound 100, 1-(2-chloro-7-methylthieno [3,2-d]pyrimidin-4-yl)-N^3-(6-cyclohexyl-amino-5,6,7,8-tetrahydro-quinolin-3-yl)-1H-1,2,4-triazole-3,5-diamine]"
9,> 20000,"Cc1csc2c(-n3nc(Nc4cnc5c(c4)CN(C(=O)C4CCNCC4)CC5)nc3N)nc(Cl)nc12 [compound 87, 1-(2-chloro-7-methylthieno [3,2-d]pyrimidin-4-yl)-N^3-(6-(piperidin-4-ylcarbonyl)-5,6,7,8-tetrahydro-1,6-naphthyridin-3-yl)-1H-1,2,4-triazole-3,5-diamine]"
10,< 1000,"Cc1cc(Nc2nc(N)n(-c3ncnc4c(C)csc34)n2)cnc1N1CCN(C2CC3CCC2C3)CC1 (stereo not shown) [compound 72, 1-(7-methylthieno [3,2-d]pyrimidine-4-yl)-N^3-(5-methyl-6-(4-bicyclo [2.2.1]heptan-2-ylpiperazin-1-yl)pyridine-3-yl)-1H-1,2,4-triazole-3,5-diamine]"

# The next lines start with the compound.
row,SMILES,IC50 [nM]
1,"CCN(CC)C1CCN(c2ccc(Nc3nc(N)n(-c4ncnc5cc(OC)c(OC)cc45)n3)cn2)C1 (stereo not shown) [compound 45, 1-(6,7-dimethoxy-quinazoline-4-yl)-N^3-(6-(3-diethyl-amino-pyrrolidin-1-yl)pyridin-3-yl)-1H-1,2,4-triazole-3,5-diamine]",< 1000
2,"COc1cc2ncnc(-n3nc(Nc4ccc(N5CCN(C6CC7CCC6C7)CC5)nc4)nc3N)c2cc1OC (stereo not shown) [compound 6, 1-(6,7-dimethoxy-quinazoline-4-yl)-N^3-(6-(4-(bicyclo[2.2.1]heptan-2-yl)piperazin-1-yl)pyridin-3-yl)-1H-1,2,4-triazole-3,5-diamine]",< 1000
3,"COc1cc2ncnc(-n3nc(Nc4ccc(N5CCC(N6CCCC6)CC5)nc4)nc3N)c2cc1OC [compound 23, 1-(6,7-dimethoxy-quinazoline-4-yl)-N^3-(6-(4-pyrrolidin-1-ylpiperidin-1-yl)pyridine-3-yl)-1H-1,2,4-triazole-3,5-diamine]",< 1000
4,"Cc1csc2c(-n3nc(Nc4ccc(N5CCN(CC6CC6)[C@@H](C)C5)nc4)nc3N)ncnc12 [compound 116, 1-(7-methyl-thieno[3,2-d]pyrimidin-4-yl)-N^3-(2-(4-cyclo-propylmethyl-3-(S)-methyl-piperazin-1-yl)pyridin-5-yl)-1H-1,2,4-triazole-3,5-diamine]",< 1000
5,"CCN(CC)CC1CCCN1c1ccc(Nc2nc(N)n(-c3ncnc4cc(OC)c(OC)cc34)n2)cn1 (stereo not shown) [compound 39, 1-(6,7-dimethoxy-quinazoline-4-yl)-N^3-(6-(2-diethyl-aminomethyl-pyrrolidin-1-yl)pyridin-3-yl)-1H-1,2,4-triazole-3,5-diamine]",< 1000
6,"COc1cc2ncnc(-n3nc(Nc4ccc(N5CCC(N6CCN(C)CC6)CC5)nc4)nc3N)c2cc1OC [compound 8, 1-(6,7-dimethoxy-quinazoline-4-yl)-N^3-(6-(4-(4-methyl-piperazin-1-yl)piperidin-1-yl)pyridin-3-yl)-1H-1,2,4-triazole-3,5-diamine]",< 1000
7,"Cc1csc2c(-n3nc(Nc4ccc(C=CCN5CCCC5)nc4)nc3N)ncnc12 [compound 119, 1-(7-methylthieno [3,2-d]pyrimidin-4-yl)-N^3-(2-(3-(pyrrolidin-1-yl)propen-1-yl)pyridin-5-yl)-1H-1,2,4-triazole-3,5-diamine]",< 1000
8,"Cc1cc(Nc2nc(N)n(-c3nnc(C)c4ccsc34)n2)cnc1N1CCN([C@H]2C[C@@H]3CC[C@H]2C3)CC1 [compound 112, 1-(4-methylthieno [3,2-d]pyridazine-7-yl)-N^3-(2-(4-(1S,2S,4R)-bicyclo[2.2.1]heptan-2-ylpiperazin-1-yl)-3-methylpyridin-5-yl)-1H-1,2,4-triazole-3,5-diamine]",> 20000
9,"Nc1nc(Nc2ccc3oc(CN4CCCC4)nc3c2)nn1-c1nccc2ccccc12 [compound 1, 1-(isoquinolin-1-yl)-N^3-(2-(pyrrolidin-1-ylmethyl)benzo [d]oxazol-5-yl)-1H-1,2,4-triazole-3,5-diamine]",1000 to 10000
